Data: BigSolDB 2.1

CC(=O)c1cnccn1
solubility (mole fraction)
Conditions	268.35 K	273.15 K	278.15 K	283.21 K	288.15 K	293.05 K	298.15 K	303.15 K	308.35 K
in DMF	0.0822	0.0972	0.116	0.139	0.165	0.194	0.23	0.269	0.314
in NMP	0.117	0.129	0.15	0.174	0.203	0.234	0.271	0.31	0.355
in acetone	0.0511	0.0601	0.0727	0.0826	0.0977	0.119	0.137	0.153	0.174
in ethanol	0.0073	0.0111	0.0136	0.0178	0.0231	0.0347	0.0433	0.0542	0.0727
in ethyl acetate	0.0636	0.0746	0.0889	0.101	0.116	0.144	0.164	0.186	0.209
in isopropanol	0.0052	0.0075	0.0106	0.0128	0.0195	0.0299	0.0382	0.0509	0.0698
in methanol	0.013	0.0156	0.0179	0.0224	0.0281	0.0405	0.0485	0.0596	0.077
